From patent publication US12297179B2, “Crystalline and salt forms of an organic compound and pharmaceutical compositions thereof” (Servier Pharmaceuticals LLC, priority 2018, dated 2025)
Values after ≈ are worked out from the molar mass of the structure shown. Counter-ions that a name gives are not always drawn. Like-named read-outs stand apart in the source and are kept apart here.

Legend:
Format in all cases: physicochemical
[1] = Hygroscopicity by dynamic vapor sorption (DVS); conditions: DVS, humidity varied from 0% RH to 80% RH at 25° C.
Method: DVS was measured via a SMS (Surface Measurement Systems) DVS Intrinsic. The relative humidity at 25° C. was calibrated against deliquescence point of LiCl, Mg(NO3)2 and KCl.

[2] = Kinetic solubility in bio-relevant media (SGF/FaSSGF, FaSSIF, FeSSIF) and H2O at 37° C., with pH of supernatant; conditions: for Solubility: 37° C.; for pH: supernatant
Method: (§1) Weigh 100 mg of sodium chloride into a 50-mL volumetric flask. Add appropriate volume of purified water and sonicate until all solids are completely dissolved. Add sufficient purified water closely to the target volume and adjust to pH 1.6. Weigh 3 mg of FaSSIF/FeSSIF/FaSSGF powder into the volumetric flask and sonicate until the powder is completely dissolved. Dilute to target volume with purified water and mix well.
as §1, with “0.170 g of monobasic sodium phosphate, 0.021 g of sodium hydroxide and 0.31 g” for “100 mg”, “6.5.” for “1.6.”, “110” for “3”
as §1, with “0.41 mL of glacial acetic acid, 0.202 g of sodium hydroxide and 0.594 g” for “100 mg”, “5.0.” for “1.6.”, “560” for “3”
An Agilent 1260 HPLC with DAD detector was utilized and detailed chromatographic conditions for solubility analysis are listed in Table 5.
Kinetic solubility of Tris salt Form A and free acid Form D were measured in three bio-relevant media (SGF, FaSSIF and FeSSIF) at 37° C. In details, ˜30 mg solids were suspended into 4.0 mL of each medium initially and equilibrated via shaking (500 rpm) at 37° C. Approximately 0.8 mL suspension was extracted at each time point of 15/30/60/120 mins and 24 hrs. The supernatant and precipitate were separated by centrifugation (10000 rpm, ˜3 mins) followed by concentration (HPLC) and pH measurement for supernatant and the corresponding solid forms were characterized by XRPD.
Due to the thermodynamic stability of Tris salt Form C, further evaluation was conducted, including kinetic solubility in three bio-relevant media (FaSSGF/FaSSF/FeSSIF) and H2O at 37° C.

[3] = Thermodynamic stability: slurry competition between Tris salt Forms A and C; conditions: DMSO/EtOH (1:8, v/v) and EtOH, 5° C./RT/50° C./75° C., 7 days
Method: The thermodynamic stability relationship between Tris salt Forms A and C was investigated via slurry competition experiments in 2 process related solvent systems, DMSO/EtOH (1:8, v/v) and EtOH at 4 temperature conditions (5° C./RT/50° C./75° C.). Two stages of slurry competition experiments were conducted, of which the first stage included temperature as a variable and the second stage used newly opened reagents to minimize the effect of absorbed moisture. Typical experimental procedures are described below.
About 5-10 mg of crystalline Tris salt Form C was first dissolved in ˜1.0 mL of corresponding solvent to form nearly saturated solution under corresponding temperature (equilibrating method: stirring magnetically, ˜1000 rpm, ˜2 hrs). Then ˜15 mg of each form (crystalline Tris salt Forms A and C) was physically mixed, followed by addition of the nearly saturated solution to form a suspension. The suspensions were then stirred (˜1000 rpm) under corresponding temperature for 7 days (a small amount of solids were sampled at 2 day point in the second stage experiments). The obtained solids were isolated via centrifugation (10000 rpm, 2 mins) and tested by XRPD to confirm the form.

[4] = Thermodynamic stability study: slurry competition among free acid Form A/B/C/D; conditions: 50° C. and 70° C.
Method: To investigate and compare the thermodynamic stability among the identified four crystalline forms of Compound 1 (free acid Form A/B/C/D), two stages of slurry competition experiments were conducted, of which the first one was to study the anhydrous solvent systems and the second stage was solvent systems with different water activities (aw).
In the first stage, ˜2 mg of each solid form (free acid Form A/B/C/D) was physically mixed first, followed by addition of 0.5 mL solvent to form suspension. At various slurrying conditions, a small amount of solid was isolated after ˜7 days for XRPD test.
To further explore any impact of water content on the conversion relationship, six conditions with different water activities and temperatures were applied. Approximately 2 mg of each solid form (free acid Form A/B/C/D) was mixed and suspended in 1.0 mL corresponding solvent systems. After slurry for ˜1 month, the solids were isolated for XRPD test.

[5] = FaSSIF (blank pH 6.5), 120 mins
[6] = FeSSIF (blank pH 5.0), 120 mins
[7] = anhydrous solvent systems, slurry at RT, ~7 days
[8] = solvent mixtures with different water activities (aw: 0~1), RT, ~1 month

For `Cc1ccccc1-c1ccc(-c2cc(C(=O)O)c3c(c2)nnn3C)cc1` [Tris salt Form A], the moisture uptake [1] was roughly 5 wt %, the Solubility ([2]; FaSSIF, 15 mins) was 490 µg/mL and the Solubility ([2]; FaSSIF, 30 mins) was 260 µg/mL. It also gave a Solubility ([2]; FaSSIF, 60 mins) of 200 µg/mL, a Solubility ([2]; FaSSIF, 120 mins) of 170 µg/mL and a Solubility ([2]; FaSSIF, 24 hrs) of 130 µg/mL. For the same molecule, the Solubility ([2]; FeSSIF, 15 mins) was 160 µg/mL, the Solubility ([2]; FeSSIF, 30 mins) was 200 µg/mL and the Solubility ([2]; FeSSIF, 60 mins) was 290 µg/mL. The Solubility ([2]; FeSSIF, 120 mins) was 81 µg/mL, the Solubility ([2]; FeSSIF, 24 hrs) was 120 µg/mL and the Solubility ([2]; SGF, 15 mins) was 60 µg/mL. The Solubility ([2]; SGF, 30 mins) was 94 µg/mL, the Solubility ([2]; SGF, 60 mins) was 100 µg/mL and the Solubility ([2]; SGF, 24 hrs) was 110 µg/mL. It also gave a solubility at 24 h ([2]; SGF, FaSSIF and FeSSIF, 37 °C, fassgf or other biorelevant, thermodynamic from solid, all SGF/FaSSIF/FeSSIF media, at 24 hours point) greater than 100 µg/mL, a pH ([2]; FaSSIF (blank pH 6.5), 15 mins) of 7.5 and a pH ([2]; FaSSIF (blank pH 6.5), 30 mins) of 7.5. It also gave a pH ([2]; FaSSIF (blank pH 6.5), 60 mins) of 7.5, a pH [2, 5] of 7.5 and a pH ([2]; FaSSIF (blank pH 6.5), 24 hrs) of 7.5. For the same molecule, the pH ([2]; FeSSIF (blank pH 5.0), 15 mins) was 5.4, the pH ([2]; FeSSIF (blank pH 5.0), 30 mins) was 5.5 and the pH ([2]; FeSSIF (blank pH 5.0), 60 mins) was 5.5. The pH [2, 6] was 5.5, the pH ([2]; FeSSIF (blank pH 5.0), 24 hrs) was 5.5 and the pH ([2]; SGF (blank pH 1.8), 15 mins) was 6.6. The pH ([2]; SGF (blank pH 1.8), 30 mins) was 7.2, the pH ([2]; SGF (blank pH 1.8), 60 mins) was 7.3 and the pH ([2]; SGF (blank pH 1.8), 120 mins) was 7.4. The pH ([2]; SGF (blank pH 1.8), 24 hrs) was 7.4 and the “form after slurry competition (XRPD), thermodynamic stability” value (shortened to “form after slurry competition (XRPD)”) [3] was “converted to Tris salt Form C”.
With `Cc1ccccc1-c1ccc(-c2cc(C(=O)O)c3c(c2)nnn3C)cc1` [free acid Form A] the “form after slurry competition (XRPD)” value [4, 7] was “converted to Form D” and the “form after slurry competition (XRPD)” value [4, 8] was “converted to Form D”.
With `Cc1ccccc1-c1ccc(-c2cc(C(=O)O)c3c(c2)nnn3C)cc1` [free acid Form B] the “form after slurry competition (XRPD)” value [4, 7] was “converted to Form D” and the “form after slurry competition (XRPD)” value [4, 8] was “converted to Form D”.
With `Cc1ccccc1-c1ccc(-c2cc(C(=O)O)c3c(c2)nnn3C)cc1` [free acid Form C] the “form after slurry competition (XRPD)” value [4, 7] was “converted to Form D” and the “form after slurry competition (XRPD)” value [4, 8] was “converted to Form D”.
With `Cc1ccccc1-c1ccc(-c2cc(C(=O)O)c3c(c2)nnn3C)cc1` [free acid Form D] the moisture uptake ([1]; listed as freeform Type D) was roughly 5 wt %, the “form after slurry competition (XRPD)” value [4, 7] was “more stable than Form A/B/C” and the “form after slurry competition (XRPD)” value [4, 8] was “more stable than Form A/B/C”. It also gave a Solubility ([2]; FaSSIF and FeSSIF, 37 °C, fassgf or other biorelevant, thermodynamic from solid, in FaSSIF and FeSSIF, read-out: solubility) of 3 to 8 µg/mL (≈ 8.74 to 23.3 µM), a Solubility ([2]; FaSSIF, 15 mins) of 3.8 µg/mL (≈ 11.1 µM) and a Solubility ([2]; FaSSIF, 30 mins) of 4.3 µg/mL (≈ 12.5 µM). It also gave a Solubility ([2]; FaSSIF, 60 mins) of 4.8 µg/mL (≈ 14 µM), a Solubility ([2]; FaSSIF, 120 mins) of 5.0 µg/mL (≈ 14.6 µM) and a Solubility ([2]; FaSSIF, 24 hrs) of 4.8 µg/mL (≈ 14 µM). For the same molecule, the Solubility ([2]; FeSSIF, 15 mins) was 5.6 µg/mL (≈ 16.3 µM), the Solubility ([2]; FeSSIF, 30 mins) was 7.3 µg/mL (≈ 21.3 µM) and the Solubility ([2]; FeSSIF, 60 mins) was 5.9 µg/mL (≈ 17.2 µM). The Solubility ([2]; FeSSIF, 120 mins) was 7.7 µg/mL (≈ 22.4 µM), the Solubility ([2]; FeSSIF, 24 hrs) was 6.4 µg/mL (≈ 18.6 µM) and the Solubility ([2]; SGF, 30 mins) was 0.11 µg/mL (≈ 0.32 µM). The Solubility ([2]; SGF, 60 mins) was 0.14 µg/mL (≈ 0.408 µM), the Solubility ([2]; SGF, 24 hrs) was 0.18 µg/mL (≈ 0.524 µM) and the solubility at 120 min ([2]; SGF, 37 °C, pH 1.6, fassgf or other biorelevant, thermodynamic from solid, 120 mins) was 0.13 µg/mL (≈ 0.379 µM). It also gave a Solubility ([2]; SGF, 37 °C, pH 1.6, fassgf or other biorelevant, thermodynamic from solid, in SGF, read-out: solubility) of less than 1 µg/mL, a pH ([2]; FaSSIF (blank pH 6.5), 15 mins) of 6.4 and a pH ([2]; FaSSIF (blank pH 6.5), 30 mins) of 6.5. The pH ([2]; FaSSIF (blank pH 6.5), 60 mins) was 6.5, the pH [2, 5] was 6.5 and the pH ([2]; FaSSIF (blank pH 6.5), 24 hrs) was 6.4. The pH ([2]; FeSSIF (blank pH 5.0), 15 mins) was 5.0, the pH ([2]; FeSSIF (blank pH 5.0), 30 mins) was 5.0 and the pH ([2]; FeSSIF (blank pH 5.0), 60 mins) was 5.0. The pH [2, 6] was 5.0, the pH ([2]; FeSSIF (blank pH 5.0), 24 hrs) was 5.0 and the pH ([2]; SGF (blank pH 1.8), 15 mins) was 2.0. For the same molecule, the pH ([2]; SGF (blank pH 1.8), 30 mins) was 2.1, the pH ([2]; SGF (blank pH 1.8), 60 mins) was 2.1 and the pH ([2]; SGF (blank pH 1.8), 120 mins) was 2.1. For the same molecule, the pH ([2]; SGF (blank pH 1.8), 24 hrs) was 2.2.
